Reference: article PMC8371902, “Phase 1 study of M2698, a p70S6K/AKT dual inhibitor, in patients with advanced cancer” (Journal of Hematology & Oncology, 2021)
Where two headings read alike, the source gives them in different places.

Tested on: patients with advanced metastatic cancer
Excerpt: In this phase 1 study, dose escalation was followed by expansion cohorts of once-daily, oral M2698 in continuous 21-day cycles. Primary objectives were to determine the maximum tolerated dose (MTD), dose-limiting toxicities (DLTs), and recommended phase 2 dose (RP2D). Secondary objectives were to assess safety and tolerability, pharmacokinetics (PK, including food effect) and antitumor activity. Pharmacodynamic biomarker assessments were exploratory. Treatment was discontinued if there was disease progression, toxicity or consent withdrawal.
In Part 1, M2698 monotherapy was investigated in a dose escalation with a food effect cohort. In Part 2, M2698 was investigated as monotherapy (expansion cohort) to further characterize safety, tolerability and pharmacokinetics, and assess antitumor activity in PAM + patients without confounding markers (exploratory).
Dose escalation analysis included all patients who experienced a DLT and those who received ≥ 80% of planned M2698 doses in cycle 1 without experiencing a DLT. Safety analysis included all patients who received ≥ 1 dose of M2698. PK analysis included all patients who received ≥ 1 dose of M2698 and had measurable plasma concentrations. Dose proportionality was tested using the power model (linear regression approach on the log -transformed scale).

NC(=O)c1cccc2c(N[C@H](CN3CCC3)c3ccc(Cl)c(C(F)(F)F)c3)ncnc12 [M2698]
10 (16.1) n (%): M2698-related TEAE: Nervous system disorders (Overall N=62) | M2698-related TEAE: Psychiatric disorders (Overall N=62)
12 (19.4) n (%): M2698-related TEAE: Nausea (Overall N=62)
3: M2698-related TEAE: Subjects with at least one event (380 mg n=4)
0: M2698-related TEAE: Dysphagia (380 mg n=4) | M2698-related TEAE: Energy increased (380 mg n=4) | M2698-related TEAE: Erythema (380 mg n=4) | M2698-related TEAE: Euphoric mood (380 mg n=4) | M2698-related TEAE: Eye disorders (380 mg n=4) | M2698-related TEAE: Fatigue (380 mg n=4) | M2698-related TEAE: Gamma-glutamyltransferase increased (380 mg n=4) | M2698-related TEAE: Gastrooesophageal reflux disease (380 mg n=4) | M2698-related TEAE: General disorders and administration site conditions (380 mg n=4) | M2698-related TEAE: Headache (380 mg n=4) | M2698-related TEAE: Hyperhidrosis (380 mg n=4) | M2698-related TEAE: Hypokalaemia (380 mg n=4) | M2698-related TEAE: Hypomagnesaemia (380 mg n=4) | M2698-related TEAE: Insomnia (380 mg n=4) | M2698-related TEAE: Lipase increased (380 mg n=4) | M2698-related TEAE: Lymphopenia (380 mg n=4) | M2698-related TEAE: Metabolism and nutrition disorders (380 mg n=4) | M2698-related TEAE: Mucosal inflammation (380 mg n=4) | M2698-related TEAE: Nightmare (380 mg n=4) | M2698-related TEAE: Onychomadesis (380 mg n=4) | M2698-related TEAE: Paranoia (380 mg n=4) | M2698-related TEAE: Photosensitivity reaction (380 mg n=4) | M2698-related TEAE: Pruritus generalised (380 mg n=4) | M2698-related TEAE: Psychiatric disorders (380 mg n=4) | M2698-related TEAE: Rash (380 mg n=4) | M2698-related TEAE: Rash maculo-papular (380 mg n=4) | M2698-related TEAE: Skin and subcutaneous tissue disorders (380 mg n=4) | M2698-related TEAE: Transaminases increased (380 mg n=4) | M2698-related TEAE: Tremor (380 mg n=4) | M2698-related TEAE: Vision blurred (380 mg n=4) | M2698-related TEAE: White blood cell count decreased (380 mg n=4)
34 (54.8) n (%): M2698-related TEAE: Subjects with at least one event (Overall N=62)
8 (12.9) n (%): M2698-related TEAE: Skin and subcutaneous tissue disorders (Overall N=62)
18 (29.0) n (%): M2698-related TEAE: Gastrointestinal disorders (Overall N=62)
4 (6.5) n (%): M2698-related TEAE: Fatigue (Overall N=62) | M2698-related TEAE: Metabolism and nutrition disorders (Overall N=62) | M2698-related TEAE: Tremor (Overall N=62)
6 (9.7) n (%): M2698-related TEAE: Abnormal dreams (Overall N=62) | M2698-related TEAE: General disorders and administration site conditions (Overall N=62)
1 (1.6) n (%): M2698-related TEAE: Affect lability (Overall N=62) | M2698-related TEAE: Alanine aminotransferase increased (Overall N=62) | M2698-related TEAE: Amylase increased (Overall N=62) | M2698-related TEAE: Angina pectoris (Overall N=62) | M2698-related TEAE: Anxiety (Overall N=62) | M2698-related TEAE: Aphasia (Overall N=62) | M2698-related TEAE: Ataxia (Overall N=62) | M2698-related TEAE: Cardiac disorders (Overall N=62) | M2698-related TEAE: Cognitive disorder (Overall N=62) | M2698-related TEAE: Delusion (Overall N=62) | M2698-related TEAE: Diarrhoea haemorrhagic (Overall N=62) | M2698-related TEAE: Dizziness (Overall N=62) | M2698-related TEAE: Dry eye (Overall N=62) | M2698-related TEAE: Dry mouth (Overall N=62) | M2698-related TEAE: Dyspepsia (Overall N=62) | M2698-related TEAE: Dysphagia (Overall N=62) | M2698-related TEAE: Energy increased (Overall N=62) | M2698-related TEAE: Erythema (Overall N=62) | M2698-related TEAE: Euphoric mood (Overall N=62) | M2698-related TEAE: Gastrooesophageal reflux disease (Overall N=62) | M2698-related TEAE: Headache (Overall N=62) | M2698-related TEAE: Hyperhidrosis (Overall N=62) | M2698-related TEAE: Hypomagnesaemia (Overall N=62) | M2698-related TEAE: Lipase increased (Overall N=62) | M2698-related TEAE: Lymphopenia (Overall N=62) | M2698-related TEAE: Mucosal inflammation (Overall N=62) | M2698-related TEAE: Nightmare (Overall N=62) | M2698-related TEAE: Onychomadesis (Overall N=62) | M2698-related TEAE: Paranoia (Overall N=62) | M2698-related TEAE: Photosensitivity reaction (Overall N=62) | M2698-related TEAE: Posterior reversible encephalopathy syndrome (Overall N=62) | M2698-related TEAE: Pruritus generalised (Overall N=62) | M2698-related TEAE: Rash (Overall N=62) | M2698-related TEAE: Transaminases increased (Overall N=62) | M2698-related TEAE: Vision blurred (Overall N=62)
9 (14.5) n (%): M2698-related TEAE: Investigations (Overall N=62)
2 (3.2) n (%): M2698-related TEAE: Anaemia (Overall N=62) | M2698-related TEAE: Blood creatine phosphokinase increased (Overall N=62) | M2698-related TEAE: Blood creatinine increased (Overall N=62) | M2698-related TEAE: Decreased appetite (Overall N=62) | M2698-related TEAE: Depression (Overall N=62) | M2698-related TEAE: Dysgeusia (Overall N=62) | M2698-related TEAE: Eye disorders (Overall N=62) | M2698-related TEAE: Gamma-glutamyltransferase increased (Overall N=62) | M2698-related TEAE: Hypokalaemia (Overall N=62) | M2698-related TEAE: Insomnia (Overall N=62) | M2698-related TEAE: Rash maculo-papular (Overall N=62)
2: M2698-related TEAE: Gastrointestinal disorders (380 mg n=4)
1: M2698-related TEAE: Investigations (380 mg n=4) | M2698-related TEAE: Nausea (380 mg n=4) | M2698-related TEAE: Nervous system disorders (380 mg n=4) | M2698-related TEAE: Posterior reversible encephalopathy syndrome (380 mg n=4) | M2698-related TEAE: Vomiting (380 mg n=4)
7 (11.3) n (%): M2698-related TEAE: Diarrhoea (Overall N=62)
3 (4.8) n (%): M2698-related TEAE: Blood and lymphatic system disorders (Overall N=62) | M2698-related TEAE: Constipation (Overall N=62)
